This is an account of results in publication PMC6371206 (ACS Pharmacology & Translational Science, 2019).

One assay concerns hD2R. Put plainly: Pairwise bias factor calculation. The format is cell-based, human. Conditions: for Bias factor GoA−βarrestin / Bias factor cAMP−βarrestin / Bias factor Gi1–GoA activation: logarithmic scale, relative to quinpirole, 30 min data; for Bias factor Gi1–GoA activation: negative = GoA bias; for Go-protein bias over β-arrestin: bias expressed as fold.
Assay [1] concerns D2R-expressing dopaminergic neurons in VTA and SNc (GIRK activity). The format is cell-based, mouse.
The target in assay [2] is hD2R (D2SR), Gi1 activation (Homo sapiens, UniProt P14416). The experiment in a line: cell-based. The format is cell-based. Conditions: for Gi1 Activation Emax: 30 min, normalized to quinpirole Emax; for Gi1 Activation Emax / EC50: hD2R in HEK293 cells; for EC50: Gi1 Activation EC50, 30 min; for Emax: HEK293, read-out: Gi1 Activation Emax.
Assay [3] deals with hD2R (D2SR), GoA activation (Homo sapiens, UniProt P14416). Put plainly: cell-based. Conditions: for EC50: GoA Activation EC50, 30 min, hD2R in HEK293 cells; for Emax: HEK293, read-out: GoA Activation Emax.
For assay [4], the target named is hD2R (D2SR), cAMP inhibition (Homo sapiens, UniProt P14416). Put plainly: cell-based. Conditions: for Emax: HEK293, read-out: cAMP Inhibition Emax; for EC50: cAMP Inhibition EC50, 30 min, hD2R in HEK293 cells.
Assay [5] addresses hD2R (D2SR), β-arrestin 2 recruitment (Homo sapiens, UniProt P14416). Put plainly: cell-based. The format is cell-based. Conditions: for Emax: HEK293, read-out: βArrestin2 Recruitment Emax.

Like-named read-outs stand apart in the source and are kept apart here.

Chain of hD2R (D2SR), cAMP inhibition (P14416 1-414 isoform P14416-2): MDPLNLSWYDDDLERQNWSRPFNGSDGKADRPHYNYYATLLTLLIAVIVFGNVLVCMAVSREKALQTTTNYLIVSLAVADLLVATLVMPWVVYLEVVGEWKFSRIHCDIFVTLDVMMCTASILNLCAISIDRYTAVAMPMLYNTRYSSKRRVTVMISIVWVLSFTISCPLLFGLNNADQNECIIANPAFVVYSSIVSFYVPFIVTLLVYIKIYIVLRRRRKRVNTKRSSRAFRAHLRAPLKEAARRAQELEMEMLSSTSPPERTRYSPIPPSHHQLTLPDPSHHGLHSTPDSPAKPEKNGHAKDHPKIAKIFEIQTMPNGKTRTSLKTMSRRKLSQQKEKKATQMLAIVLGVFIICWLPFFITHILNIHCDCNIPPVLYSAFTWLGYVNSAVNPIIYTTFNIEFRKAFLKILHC
Chain of hD2R (D2SR), GoA activation (P14416 1-414 isoform P14416-2): as above
Chain of hD2R (D2SR), GoA activation (P09471 2-354 partner limits assumed): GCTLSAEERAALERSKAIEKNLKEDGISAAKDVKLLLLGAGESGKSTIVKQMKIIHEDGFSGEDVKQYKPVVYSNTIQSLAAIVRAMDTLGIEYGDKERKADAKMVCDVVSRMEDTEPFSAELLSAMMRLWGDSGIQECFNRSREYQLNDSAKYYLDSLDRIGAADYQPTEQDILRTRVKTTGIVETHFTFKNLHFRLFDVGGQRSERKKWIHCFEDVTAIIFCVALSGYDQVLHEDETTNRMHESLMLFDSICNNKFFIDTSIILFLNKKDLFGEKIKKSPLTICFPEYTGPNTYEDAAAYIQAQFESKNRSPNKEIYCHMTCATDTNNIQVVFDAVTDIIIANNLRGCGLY
Chain of hD2R (D2SR), GoA activation (P62873 2-340 partner limits assumed): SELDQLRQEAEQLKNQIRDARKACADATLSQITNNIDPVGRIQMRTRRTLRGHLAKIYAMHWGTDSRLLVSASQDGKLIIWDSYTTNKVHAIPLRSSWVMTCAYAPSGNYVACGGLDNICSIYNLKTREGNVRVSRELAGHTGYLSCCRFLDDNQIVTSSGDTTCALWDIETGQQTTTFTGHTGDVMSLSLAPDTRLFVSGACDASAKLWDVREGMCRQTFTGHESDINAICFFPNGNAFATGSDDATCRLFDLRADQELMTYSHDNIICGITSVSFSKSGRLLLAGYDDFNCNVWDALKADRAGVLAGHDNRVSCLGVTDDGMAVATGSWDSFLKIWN
Chain of hD2R (D2SR), GoA activation (P59768 2-68 partner limits assumed): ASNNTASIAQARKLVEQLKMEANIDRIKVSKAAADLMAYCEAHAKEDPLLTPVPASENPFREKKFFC
Chain of hD2R (D2SR), Gi1 activation (P14416 1-414 isoform P14416-2): as the sequence (P14416 1-414 isoform P14416-2) above
Chain of hD2R (D2SR), Gi1 activation (P63096 2-354 partner limits assumed): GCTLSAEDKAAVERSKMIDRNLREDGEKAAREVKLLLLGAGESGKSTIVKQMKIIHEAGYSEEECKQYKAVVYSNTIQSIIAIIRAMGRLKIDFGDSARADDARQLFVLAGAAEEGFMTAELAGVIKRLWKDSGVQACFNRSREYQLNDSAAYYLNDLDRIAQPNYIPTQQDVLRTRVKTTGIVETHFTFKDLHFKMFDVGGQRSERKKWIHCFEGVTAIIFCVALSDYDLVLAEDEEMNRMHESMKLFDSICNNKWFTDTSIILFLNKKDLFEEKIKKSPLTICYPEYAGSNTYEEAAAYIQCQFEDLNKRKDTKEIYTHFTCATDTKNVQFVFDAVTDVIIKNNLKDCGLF
Chain of hD2R (D2SR), Gi1 activation (P62873 2-340 partner limits assumed): as the sequence (P62873 2-340 partner limits assumed) above
Chain of hD2R (D2SR), Gi1 activation (P59768 2-68 partner limits assumed): as the sequence (P59768 2-68 partner limits assumed) above
Chain of hD2R (D2SR), β-arrestin 2 recruitment (P14416 1-414 isoform P14416-2): as the sequence (P14416 1-414 isoform P14416-2) above
Chain of hD2R (D2SR), β-arrestin 2 recruitment (P32121 whole entry partner): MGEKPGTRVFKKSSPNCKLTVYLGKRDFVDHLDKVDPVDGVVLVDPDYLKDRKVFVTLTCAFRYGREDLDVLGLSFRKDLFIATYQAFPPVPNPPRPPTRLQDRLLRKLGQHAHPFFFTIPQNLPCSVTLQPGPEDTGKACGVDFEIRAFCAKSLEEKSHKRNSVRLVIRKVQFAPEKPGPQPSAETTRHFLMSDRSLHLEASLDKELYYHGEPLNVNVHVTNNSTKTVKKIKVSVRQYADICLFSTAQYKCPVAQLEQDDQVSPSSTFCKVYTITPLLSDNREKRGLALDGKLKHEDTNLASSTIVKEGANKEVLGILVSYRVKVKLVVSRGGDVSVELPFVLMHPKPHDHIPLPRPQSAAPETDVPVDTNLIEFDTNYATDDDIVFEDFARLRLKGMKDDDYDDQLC

With `CN[C@@H]1Cc2cccc3[nH]c(=O)n(c23)C1` [Sumanirole, (R)-5,6-dihydro-5-(methylamino)-4H-imidazo[4,5,1-ij]quinolin-2(1H)-one, reference compound], in the assay on hD2R, the “Bias factor GoA−βarrestin” value is recorded as 0.15, the “Bias factor cAMP−βarrestin” value was “–0.10” and the “Bias factor Gi1–GoA activation” value is “–0.54”. Besides, in assay [1] (whole cell voltage-clamp, −60 mV, 3 and 30 μM), the “ligand-induced change of holding current” value is “produced an increase in the holding current”.
What is called EC50 is the concentration that produces a half-maximal response. High values mean lower potency in that assay, low ones higher potency in that assay. The Emax is the greatest response seen or fitted, relative to the assay's reference. Turning to `CC1Cc2ccccc2N1C(=O)c1nc2ccccc2s1` (stereo not shown) [Compound 2, reference compound], in assay [2], the “Gi1 Activation Emax” value is on record as “low efficacy”; the midpoint of the response, the EC50, lay at 39.7 ± 39.7 nM; the Emax was 8.1 ± 8.2%. Further, in assay [3], the half-maximal effective concentration (EC50) amounted to 61.1 ± 48.8 nM and the Emax came to 31.9 ± 7%. Moreover, in assay [4], the Emax worked out at 58.5 ± 30.2% and it took 22.9 ± 19 nM to reach a half-maximal effect (EC50). In addition, in assay [5] (30 min, hD2R in HEK293 cells, normalized to quinpirole Emax), the “βArrestin2 Recruitment Emax” value is recorded as “low efficacy”.
As to `CCN1CCCC1CNC(=O)c1cc(S(N)(=O)=O)ccc1OC` (stereo not shown) [sulpiride], the “effect of D2R antagonist on agonist-induced holding current change” value in assay [1] is recorded as “inhibited the change in the holding current induced by either sumanirole or 11”.
On to `NCCc1ccc(O)c(O)c1` [dopamine], for which the “ligand-induced change of holding current” value in assay [1] is listed as “produced an increase in the holding current”.
Take `CN(C[C@@H]1C[C@H]1CCNC(=O)c1cc2ccccc2[nH]1)[C@@H]1Cc2cccc3[nH]c(=O)n(c23)C1` [Compound 19]: in assay [2], the midpoint of the response, the EC50, lay at 129 ± 56.3 nM and the maximal effect (Emax) is 57.6 ± 4.9%. In addition, in assay [3], the concentration for a half-maximal effect (EC50) stood at 1 ± 0.5 nM and the Emax stood at 74 ± 5.4%. Besides, in assay [4], the maximum response (Emax) stood at 60.5 ± 1.5% and the EC50 was 6 ± 1.1 nM. In assay [5], the EC50 was 80.5 ± 35.7 nM and the Emax amounted to 30.5 ± 2.6%. Further, in the assay on hD2R, the “Go-protein bias over β-arrestin” value is reported as above 1000 fold, the “Bias factor GoA−βarrestin” value was 3.44 and the “Bias factor cAMP−βarrestin” value is recorded as 1.93.
On to `CN(CCCCNC(=O)c1cc2ccccc2[nH]1)[C@@H]1Cc2cccc3[nH]c(=O)n(c23)C1` [Compound 1], for which the Emax in assay [2] turned out to be 51 ± 4.4%. Also, in the assay with hD2R, the “Go-protein bias over β-arrestin” value is reported as around 30 fold, the “Bias factor GoA−βarrestin” value is listed as 1.51 and the “Bias factor Gi1–GoA activation” value is “–0.98”.
Take `CN(CC[C@@H]1C[C@H]1CNC(=O)c1cc2ccccc2[nH]1)[C@@H]1Cc2cccc3[nH]c(=O)n(c23)C1` [Compound 20]: in assay [2], a half-maximal effect (EC50) was put at 184 ± 63.6 nM and the maximal effect (Emax) is 72.4 ± 4.6%. In addition, in assay [3], the EC50 stood at 103 ± 28.2 nM and the maximum response (Emax) stood at 80.3 ± 3.8%. In assay [4], the maximal effect (Emax) turned out to be 59.8 ± 1.5% and it took 81.1 ± 13.1 nM to reach a half-maximal effect (EC50). Besides, in assay [5], the concentration giving a half-maximal response (EC50) turned out to be 208 ± 85.8 nM and the maximum response (Emax) is 26 ± 2.1%. Besides, in the assay on hD2R, the “Go-protein bias over β-arrestin” value is reported as above 1000 fold, the “Bias factor GoA−βarrestin” value was 2.50, the “Bias factor cAMP−βarrestin” value is reported as 1.39 and the “Bias factor Gi1–GoA activation” value is 0.24.
For the compound `CN(CCCCNC(=O)c1nc2ccccc2s1)[C@@H]1Cc2cccc3[nH]c(=O)n(c23)C1` [Compound 9], the half-maximal effective concentration (EC50) in assay [2] came to 301 ± 147 nM; in assay [3] it was 117 ± 59 nM; in assay [4] it was 79.1 ± 31.7 nM; in assay [5], 794 ± 711 nM. Besides, the maximal effect (Emax) in assay [2] amounted to 85.1 ± 8.6%; in assay [3], 75.5 ± 7.8%; in assay [4] it was 84 ± 6.2%; in assay [5], 64.2 ± 25.6%. Moreover, in the assay with hD2R, the “Bias factor GoA−βarrestin” value was 0.55. Further, the “Bias factor cAMP−βarrestin” value with hD2R is recorded as 0.56. Besides, the “Bias factor Gi1–GoA activation” value with hD2R is 0.43.
With `CN(CCCCNC(=O)c1ccc2scnc2c1)[C@@H]1Cc2cccc3[nH]c(=O)n(c23)C1` [Compound 8], in assay [2], the “Gi1 Activation Emax” value is “fully efficacious”, the concentration giving a half-maximal response (EC50) turned out to be 144 ± 52.6 nM and the maximal response (Emax) was determined as 108 ± 7.3%. Moreover, in assay [3], the concentration for a half-maximal effect (EC50) is 7.3 ± 3.6 nM and the maximal response (Emax) stood at 92.1 ± 7.2%. Besides, in assay [4], the Emax came to 95.4 ± 4.7% and the half-maximal effective concentration (EC50) was determined as 5.2 ± 1.8 nM. Besides, in assay [5], the response was half-maximal at 208 ± 173 nM (EC50) and the Emax was determined as 76.4 ± 20.1%. For the same compound, in the assay with hD2R, the “Bias factor GoA−βarrestin” value is on record as 1.21, the “Bias factor cAMP−βarrestin” value is 1.05 and the “Bias factor Gi1–GoA activation” value is listed as “–0.44”.
